Measured values reported in US11364248B2 (AMGEN INC., priority 2017, dated 2022).
Where two headings read alike, the source gives them in different places.

Columns and labels:
[1] = system: OPM-2; assay: Cell Viability Assay (OPM-2 10 FBS); format: cell-based, human; details: OPM-2 cells, CellTiter-Glo, read-out: OPM-2 10% FBS IC50 IP
Summary of the method: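 Compounds, serially diluted, were left on OPM-2 cells (3000 cells/well, 10% FBS RPMI 1640) for 16 h at 37° C. under 5% CO2.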

[2] = biological target: Mcl-1/Bim interaction (Homo sapiens (Human), UniProt Q07820); assay: Cell Free Mcl-1: Bim Affinity Assay (Mcl-1 HTRF); format: binding; details: TR-FRET, recombinant human Mcl-1(171-327), biotin-Bim(51-76); read-out: Mel-1 HTRF IC50
Chain of Mcl-1/Bim interaction (Q07820 171-327): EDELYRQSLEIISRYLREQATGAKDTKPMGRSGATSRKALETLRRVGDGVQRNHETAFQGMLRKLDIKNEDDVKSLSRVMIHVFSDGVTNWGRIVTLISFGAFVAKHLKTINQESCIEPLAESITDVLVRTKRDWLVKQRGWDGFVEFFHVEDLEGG
Summary of the method: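 IC50 values came from duplicate four-parameter fits of the 665/620 nm TR-FRET ratio, read after overnight incubation with Eu anti-6×His and streptavidin-Xlent detection reagents. Beforehand, serially diluted compounds sat 60 min with Mcl-1 residues 171-327 (0.1 nM) and biotinylated Bim 51-76 peptide (0.05 nM), pH 7.5 Hepes/NaCl/DTT buffer.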

Row | Structure (SMILES) | IC50 [2] [nM] | IC50 ([1]; 16 h) [nM] | IC50 ([1]; Homo sapiens, OPM-2, 16 h) [nM]
1 | C[C@@H]1[C@@H](C)CCC[C@H]([C@H]2OC[C@@H](N(C)C3CC3)CO2)[C@@H]2CC[C@H]2CN2C[C@@]3(CCCc4cc(Cl)ccc43)COc3ccc(cc32)C(=O)NS1(=O)=O [Example 70, (1S,3′R,6′R,7′S,11′S,12′R)-6-chloro-7′-(cis-5-(cyclopropyl(methyl)amino)-1,3-dioxan-2-yl)-11′,12′-dimethyl-3,4-dihydro-2H,15′H-spiro[naphthalene-1,22′-[20]oxa[13]thia[1,14]diazatetracyclo [14.7.2.0~3,6~.0~19,24~]pentacosa[16,18,24]trien]-15′-one 13′,13′-dioxide] | 1.31 | 1580 | –
2 | CC(=O)N1C[C@@H]2O[C@H]([C@H]3CCC[C@H](C)[C@@H](C)S(=O)(=O)NC(=O)c4ccc5c(c4)N(C[C@@H]4CC[C@H]43)C[C@@]3(CCCc4cc(Cl)ccc43)CO5)O[C@@H]2C1 (stereo in doubt) [Example 16, (1S,3′R,6′R,7′R,11′S,12′R)-7′-((2r,3aR,6aS)-5-acetyltetrahydro-3aH-[1,3]dioxolo[4,5-c]pyrrol-2-yl)-6-chloro-11′,12′-dimethyl-3,4-dihydro-2H,15′H-spiro[naphthalene-1,22′-[20]oxa[13]thia[1,14]diazatetracyclo [14.7.2.0~3,6~.0~19,24~]pentacosa[16,18,24]trien]-15′-one 13′,13′-dioxide] | 0.194 | – | 262
3 | C[C@@H]1[C@@H](C)CCC[C@@H]([C@H]2OC[C@@H](N3CC(O)C3)CO2)[C@@H]2CC[C@H]2CN2C[C@@]3(CCCc4cc(Cl)ccc43)COc3ccc(cc32)C(=O)NS1(=O)=O (single isomer, unassigned) [Example 62] | 2.08 | 4470 | –
4 | C[C@H]1CCC[C@H]([C@H]2OC[C@@H](N(C)C)CO2)[C@@H]2CC[C@H]2CN2C[C@@]3(CCCc4cc(Cl)ccc43)COc3ccc(cc32)C(=O)NS(=O)(=O)C1 (stereo in doubt) [Example 78] | 2.81 | 599 | –
5 | C[C@@H]1[C@@H](C)CCC[C@H]([C@H]2OC[C@@H](N3CC4(COC4)C3)CO2)[C@@H]2CC[C@H]2CN2C[C@@]3(CCCc4cc(Cl)ccc43)COc3ccc(cc32)C(=O)NS1(=O)=O [Example 60, (1S,3′R,6′R,7′S,11′S,12′R)-6-chloro-11′,12′-dimethyl-7′-(cis-5-(2-oxa-6-azaspiro[3.3]hept-6-yl)-1,3-dioxan-2-yl)-3,4-dihydro-2H,15′H-spiro[naphthalene-1,22′-[20]oxa[13]thia[1,14]diazatetracyclo [14.7.2.0~3,6~.0~19,24~]pentacosa[16,18,24]trien]-15′-one 13′,13′-dioxide] | 0.897 | – | 610
6 | C[C@@H]1[C@@H](C)CCC[C@@H]([C@H]2OC[C@@H](CN(C)C)O2)[C@@H]2CC[C@H]2CN2C[C@@]3(CCCc4cc(Cl)ccc43)COc3ccc(cc32)C(=O)NS1(=O)=O (single isomer, unassigned) [Example 30] | 5.12 | 2440 | –
7 | CCN(CC)[C@H]1CO[C@H]([C@H]2CCC[C@H](C)[C@@H](C)S(=O)(=O)NC(=O)c3ccc4c(c3)N(C[C@@H]3CC[C@H]32)C[C@@]2(CCCc3cc(Cl)ccc32)CO4)OC1 [Example 28, (1S,3′R,6′R,7′S,11′S,12′R)-6-chloro-7′-(trans-5-(diethylamino)-1,3-dioxan-2-yl)-11′,12′-dimethyl-3,4-dihydro-2H,15′H-spiro[naphthalene-1,22′-[20]oxa[13]thia[1,14]diazatetracyclo [14.7.2.0~3,6~.0~19,24~]pentacosa[16,18,24]trien]-15′-one 13′,13′-dioxide] | 0.477 | – | 403
8 | C[C@@H]1[C@@H](C)CCC[C@H]([C@H]2O[C@H]3CNC[C@H]3O2)[C@@H]2CC[C@H]2CN2C[C@@]3(CCCc4cc(Cl)ccc43)COc3ccc(cc32)C(=O)NS1(=O)=O (stereo in doubt) [Example 35, (1S,3′R,6′R,7′R,11′S,12′R)-6-chloro-11′,12′-dimethyl-7′-((2r,3aR,6aS)-tetrahydro-3aH-[1,3]dioxolo[4,5-c]pyrrol-2-yl)-3,4-dihydro-2H,15′H-spiro[naphthalene-1,22′-[20]oxa[13]thia[1,14]diazatetracyclo [14.7.2.0~3,6~.0~19,24~]pentacosa[16,18,24]trien]-15′-one 13′,13′-dioxide] | 0.829 | 304 | –

More lines, main results first:

Row | IC50 [2] [nM] | Structure (SMILES) | IC50 ([1]; 16 h) [nM] | IC50 ([1]; Homo sapiens, OPM-2, 16 h) [nM]
9 | 1.92 | C[C@@H]1[C@@H](C)CCC[C@H](C2OCCO2)[C@@H]2CC[C@H]2CN2C[C@@]3(CCCc4cc(Cl)ccc43)COc3ccc(cc32)C(=O)NS1(=O)=O [Example 4, (1S,3′R,6′R,7′S,11′S,12′R)-6-chloro-7′-(1,3-dioxolan-2-yl)-11′,12′-dimethyl-3,4-dihydro-2H,15′H-spiro[naphthalene-1,22′-[20]oxa[13]thia[1,14]diazatetracyclo [14.7.2.0~3,6~.0~19,24~]pentacosa[16,18,24]trien]-15′-one 13′,13′-dioxide] | 2150 | –
10 | 0.765 | C[C@@H]1[C@@H](C)CCC[C@H]([C@H]2OC[C@H](O)CO2)[C@@H]2CC[C@H]2CN2C[C@@]3(CCCc4cc(Cl)ccc43)COc3ccc(cc32)C(=O)NS1(=O)=O [Example 14, (1S,3′R,6′R,7′S,11′S,12′R)-6-chloro-7′-(trans-5-hydroxy-1,3-dioxan-2-yl)-11′,12′-dimethyl-3,4-dihydro-2H,15′H-spiro[naphthalene-1,22′-[20]oxa[13]thia[1,14]diazatetracyclo [14.7.2.0~3,6~.0~19,24~]pentacosa[16,18,24]trien]-15′-one 13′,13′-dioxide] | 1990 | –
11 | 0.473 | CO[C@H]1CO[C@@H]([C@@H]2CCC[C@H](C)[C@@H](C)S(=O)(=O)NC(=O)c3ccc4c(c3)N(C[C@@H]3CC[C@H]32)C[C@@]2(CCCc3cc(Cl)ccc32)CO4)OC1 (single isomer, unassigned) [Example 25] | 903 | –
12 | 0.29 | C[C@@H]1[C@@H](C)CCC[C@H]([C@H]2OC[C@H](O)CO2)[C@@H]2CC[C@H]2CN2C[C@@]3(CCCc4cc(Cl)ccc43)COc3ccc(cc32)C(=O)NS1(=O)=O [Example 11, (1S,3′R,6′R,7′S,11′S,12′R)-6-chloro-7′-(trans-5-hydroxy-1,3-dioxan-2-yl)-11′,12′-dimethyl-3,4-dihydro-2H,15′H-spiro[naphthalene-1,22′-[20]oxa[13]thia[1,14]diazatetracyclo [14.7.2.0~3,6~.0~19,24~]pentacosa[16,18,24]trien]-15′-one 13′,13′-dioxide] | 260 | –
13 | 0.37 | CCN[C@H]1CO[C@H]([C@H]2CCC[C@H](C)[C@@H](C)S(=O)(=O)NC(=O)c3ccc4c(c3)N(C[C@@H]3CC[C@H]32)C[C@@]2(CCCc3cc(Cl)ccc32)CO4)OC1 [Example 27, (1S,3′R,6′R,7′S,11′S,12′R)-6-chloro-7′-(trans-5-(ethylamino)-1,3-dioxan-2-yl)-11′,12′-dimethyl-3,4-dihydro-2H,15′H-spiro[naphthalene-1,22′-[20]oxa[13]thia[1,14]diazatetracyclo [14.7.2.0~3,6~.0~19,24~]pentacosa[16,18,24]trien]-15′-one 13′,13′-dioxide] | – | 155
